Laboratory results from patent US20240383921A1, “AMIDE AND UREA-CONTAINING TRICYCLIC KRAS INHIBITORS” (Erasca, Inc., priority 2021, published 2024).

What was measured:
KRAS 4B G12C protein = biological target: T1, KRAS 4B G12C protein (Homo sapiens, UniProt P01116, G12C); test: KRAS G12C covalent adduct formation (CAF) assay, LC-MS; format: binding; conditions: 10 μM compound, 5 μM protein, 22° C.
T1 construct: made in house; host or cells: E. coli BL21
Protocol: This Example provides a protocol for assessing covalent adduct formation (CAF) between the compounds of Formula (I) and KRAS.
In vitro covalent adduct formation assay: Covalent adduct formation (CAF) reactions between Cys12 of the KRAS 4B G12C protein and the compounds disclosed herein were measured in vitro using liquid chromatography-mass spectrometry (LC-MS).
Recombinant Human KRAS 4B protein containing the G12C mutation was used in compound screening experiments. This protein contained 188 amino acids in total, including an N-terminal 6-Histidine tag, followed by a Tobacco Etch Virus (TEV) tag, followed by residues 1-169 of the native KRAS 4B sequence. The exact mass of the protein is 21,310 Da as determined by mass spectrometry. […]
The recombinant protein is expressed in E. coli BL21 cells and purified using affinity chromatography via a Ni-NTA column. […] The intact mass of the protein samples was measured by LC-MS using a QExactive+ mass spectrometer (Thermo Scientific). An amount of 500 ng total protein was injected onto a C8 reverse phase column, eluted with a seven-minute gradient of 30%-90% acetonitrile/0.1% formic acid, and analyzed for intact mass by the mass spectrometer. Adducts identified were confirmed to be within 1 Dalton of the expected mass, and the relative ratios of free:adduct protein were used to quantify the percentage of protein bound by the compound. […]

[1] = tested on: Ras Initiative (RI) KRAS G12C cells; test: phospho-ERK HTRF assay in RI KRAS G12C cells; format: cell-based; conditions: 11-point dose response starting at 2,500 nM, 4 hours or 16 hours treatment, read-out: pERK (RI)
Protocol: KRAS G12C mutant lines, NCI H358 (ATCC, CRL-5807), and Ras Initiative (RI) KRAS G12C were cultured according to published protocols and maintained at 37° C. in 5% CO2. The phospho-ERK HTRF assay was executed following provider's protocol (CisBio #64AERPEH). NCI-H358 or RI KRAS G12C cells were plated at a density of 50,000 cells per well in a 96-well plate (Corning #3903) in respective medias (for NCI-H358, RPMI+10% FBS+1% Pen/Strep, and for RI KRAS G12C, DMEM+10% FBS+1% Pen/Strep+4 μg/mL Blasticidin) and maintained at 37° C. in 5% CO2. Cells were allowed to adhere overnight and treated the following day with a Tecan D300e Digital Dispenser (Tecan Group Ltd., Switzerland) using an 11-point dose response starting at 2,500 nM of exemplified compounds followed by sequential 1:3 dilutions for either 4 hours or 16 hours. Following compound treatment, the cells were washed once with ice-cold PBS. Cells were lysed by adding 50 μL of lysis buffer (1×) supplemented with 1× Pierce Halt Protease and Phosphatase inhibitor and incubated for 30 minutes at 4° C. with shaking. After lysis, 16 μL of cell lysate from the 96-well cell-culture plate was transferred to a 384-well plate (Perkin Elmer #6007290). The premixed antibody solution was prepared by mixing (vol/vol) advanced phospho-ERK1/2 d2 antibody and advanced phospho-ERK1/2 Eu Cryptate antibody. The premixed antibody solution (4 μL) was added to the detection plate containing cell lysate. The detection plate was incubated overnight at 4° C., the HTRF signal was read the next day by using either a Spectramax M5 or Spectramax i3 microplate reader (Molecular Devices, San Jose, CA, USA), and data was processed according to manufacturer's protocol.
Examples were evaluated according to the above p-ERK assay

Row | Structure (SMILES) | % CAF @ 60 min (KRAS 4B G12C protein) | IC50 [1]
1 | C=CC(=O)N1CCN(c2nc(=O)n3c4c(c(-c5ccc(F)c6[nH]c(=O)[nH]c56)c(C(F)(F)F)cc24)SC[C@@H]3COC)CC1 [Example 3, (3S,10S)-7-(4-acryloylpiperazin-1-yl)-10-(7-fluoro-2-oxo-2,3-dihydro-1H-benzo[d]imidazol-4-yl)-3-(methoxymethyl)-9-(trifluoromethyl)-2,3-dihydro-5H-[1,4]thiazino[2,3,4-ij]quinazolin-5-one] |  | > 2500 nM
2 | C=CC(=O)N1CCN(c2nc(=O)n3c4c(c(-c5ccc(F)c6[nH]c(=O)[nH]c56)c(C(F)(F)F)cc24)SCC2(CCC2)C3)CC1 [Example 5, 8′-(4-acryloylpiperazin-1-yl)-11′-(7-fluoro-2-oxo-2,3-dihydro-1H-benzo[d]imidazol-4-yl)-10′-(trifluoromethyl)-2′H,4′H,6′H-spiro[cyclobutane-1,3′-[1,4]thiazepino[2,3,4-ij]quinazolin]-6′-one] |  | > 2500 nM
3 | C=CC(=O)N1[C@H](C)CN(c2nc(=O)n3c4c(c(-c5ccc(F)c6sc(=O)[nH]c56)c(C(F)(F)F)cc24)SCC2(CCC2)C3)C[C@@H]1C [Example 8, 8′-((3S,5R)-4-acryloyl-3,5-dimethylpiperazin-1-yl)-11′-(7-fluoro-2-oxo-2,3-dihydrobenzo[d]thiazol-4-yl)-10′-(trifluoromethyl)-2′H,4′H,6′H-spiro[cyclobutane-1,3′-[1,4]thiazepino[2,3,4-ij]quinazolin]-6′-one] |  | 171 nM
4 | C=CC(=O)N1CCN(c2nc(=O)n3c4c(c(-c5ccc(F)c6sc(=O)[nH]c56)c(C(F)(F)F)cc24)SCC2(CCC2)C3)CC1 [Example 9, 8′-(4-acryloylpiperazin-1-yl)-11′-(7-fluoro-2-oxo-2,3-dihydrobenzo[d]thiazol-4-yl)-10′-(trifluoromethyl)-2′H,4′H,6′H-spiro[cyclobutane-1,3′-[1,4]thiazepino[2,3,4-ij]quinazolin]-6′-one] |  | 222 nM

Further lines, results first:

Row | % CAF @ 60 min (KRAS 4B G12C protein) | IC50 [1] | Structure (SMILES)
5 | 75% | > 2500 nM | C=CC(=O)N1[C@H](C)CN(c2nc(=O)n3c4c(c(-c5ccc(F)c6[nH]c(=O)[nH]c56)c(C(F)(F)F)cc24)SC[C@@H](OC)C3)C[C@@H]1C [Example 1, (3S)-8-((3S,5R)-4-acryloyl-3,5-dimethylpiperazin-1-yl)-11-(7-fluoro-2-oxo-2,3-dihydro-1H-benzo[d]imidazol-4-yl)-3-methoxy-10-(trifluoromethyl)-3,4-dihydro-2H,6H-[1,4]thiazepino[2,3,4-ij]quinazolin-6-one]
6 |  | > 2500 nM | C=CC(=O)N1[C@H](C)CN(c2nc(=O)n3c4c(c(-c5ccc(F)c6[nH]c(=O)[nH]c56)c(C(F)(F)F)cc24)SC[C@@H]3COC)C[C@@H]1C [Example 2, (3S,10S)-7-((3S,5R)-4-acryloyl-3,5-dimethylpiperazin-1-yl)-10-(7-fluoro-2-oxo-2,3-dihydro-1H-benzo[d]imidazol-4-yl)-3-(methoxymethyl)-9-(trifluoromethyl)-2,3-dihydro-5H-[1,4]thiazino[2,3,4-ij]quinazolin-5-one]
7 |  | > 2500 nM | C=CC(=O)N1[C@H](C)CN(c2nc(=O)n3c4c(c(-c5ccc(F)c6[nH]c(=O)[nH]c56)c(C(F)(F)F)cc24)SCC2(CCC2)C3)C[C@@H]1C [Example 4, 8′-((3S,5R)-4-acryloyl-3,5-dimethylpiperazin-1-yl)-11′-(7-fluoro-2-oxo-2,3-dihydro-1H-benzo[d]imidazol-4-yl)-10′-(trifluoromethyl)-2′H, 4′H,6′H-spiro[cyclobutane-1,3′-[1,4]thiazepino[2,3,4-ij]quinazolin]-6′-one]
8 |  | 68 nM | C=CC(=O)N1[C@H](C)CN(c2nc(=O)n3c4c(c(-c5ccc(F)c6sc(=O)[nH]c56)c(C(F)(F)F)cc24)SC[C@@H]3COC)C[C@@H]1C [Example 6, (3S,10S)-7-((3S,5R)-4-acryloyl-3,5-dimethylpiperazin-1-yl)-10-(7-fluoro-2-oxo-2,3-dihydrobenzo[d]thiazol-4-yl)-3-(methoxymethyl)-9-(trifluoromethyl)-2,3-dihydro-5H-[1,4]thiazino[2,3,4-ij]quinazolin-5-one]
9 |  | 18 nM | C=CC(=O)N1CCN(c2nc(=O)n3c4c(c(-c5ccc(F)c6sc(=O)[nH]c56)c(C(F)(F)F)cc24)SC[C@@H]3COC)CC1 [Example 7, (3S,10S)-7-(4-acryloylpiperazin-1-yl)-10-(7-fluoro-2-oxo-2,3-dihydrobenzo[d]thiazol-4-yl)-3-(methoxymethyl)-9-(trifluoromethyl)-2,3-dihydro-5H-[1,4]thiazino[2,3,4-ij]quinazolin-5-one]
10 |  | 46 nM | C=CC(=O)N1[C@H](C)CN(c2nc(=O)n3c4c(c(-c5ccc(F)c6sc(=O)n(C)c56)c(C(F)(F)F)cc24)SC[C@@H]3COC)C[C@@H]1C [Example 10, (3S)-7-((3S,5R)-4-acryloyl-3,5-dimethylpiperazin-1-yl)-10-(7-fluoro-3-methyl-2-oxo-2,3-dihydrobenzo[d]thiazol-4-yl)-3-(methoxymethyl)-9-(trifluoromethyl)-2,3-dihydro-5H-[1,4]thiazino[2,3,4-ij]quinazolin-5-one]
